Like-named read-outs stand apart in the source and are kept apart here.
Experiments:
Format in all cases: in vivo
Diabrotica balteata = Diabrotica balteata (corn root worm), sprayed maize sprouts; conditions: 96 h, read-out: effect in at least one of the two categories (mortality or growth inhibition); for percent effect (mortality or growth inhibition) at 200 ppm: application rate 200 ppm, L2 larvae, 4 days after infestation
Method in brief: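 Read-out at 4 days post-infestation: mortality and growth inhibition relative to untreated samples. Test solutions (200 ppm, from DMSO stocks) were sprayed onto agar-held maize sprouts, which after drying received 6–10 L2 larvae per well.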

Euschistus heros = Euschistus heros (neotropical brown stink bug), sprayed soybean leaves; conditions: 120 h, read-out: effect in at least one of the two categories (mortality or growth inhibition); for percent effect (mortality or growth inhibition) at 200 ppm: application rate 200 ppm, N2 nymphs, 5 days after infestation
Method in brief: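 Scored 5 days post-infestation versus untreated controls, for both mortality and growth inhibition: N2 nymphs placed on agar-mounted soybean leaves previously sprayed at 200 ppm with aqueous test solutions from DMSO stocks and left to dry.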

Myzus persicae = Myzus persicae (green peach aphid): feeding/contact activity; conditions: 144 h
Description: Sunflower leaf discs were placed onto agar in a 24-well microtiter plate and sprayed with aqueous test solutions prepared from 10'000 ppm DMSO stock solutions. After drying, the leaf discs were infested with an aphid population of mixed ages. The samples were assessed for mortality 6 days after infestation.

Plutella xylostella = Plutella xylostella (diamond back moth), artificial diet; conditions: 120 h, read-out: effect in at least one of the two categories (mortality or growth inhibition); for percent effect (mortality or growth inhibition) at 200 ppm: application rate 200 ppm, L2 larvae, 5 days after infestation
Method in brief: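 L2 larvae (10-15 per well) fed on compound-treated, dried artificial diet; test solutions diluted in water from 10'000 ppm DMSO stocks. Readout 5 days post-infestation as mortality or growth inhibition versus untreated diet, with at least 80% effect at 200 ppm as threshold.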

Spodoptera littoralis = Spodoptera littoralis (Egyptian cotton leaf worm), sprayed cotton leaf discs; conditions: foliar, 72 h, read-out: control (mortality, anti-feeding effect, growth inhibition)
Method in brief: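 Five first-instar larvae placed on dried cotton leaf discs (on agar) previously sprayed with aqueous dilutions of 10'000 ppm DMSO stocks. Scored at 3 days against untreated discs for mortality, feeding inhibition and growth inhibition; any category above untreated counts as control.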

Tetranychus urticae = Tetranychus urticae (two-spotted spider mite): feeding/contact activity; conditions: 192 h
Description: Bean leaf discs on agar in 24-well microtiter plates were sprayed with aqueous test solutions prepared from 10'000 ppm DMSO stock solutions. After drying the leaf discs were infested with a mite population of mixed ages. The samples were assessed for mortality on mixed population (mobile stages) 8 days after infestation.

Thrips tabaci = Thrips tabaci (onion thrips): feeding/contact activity; conditions: 144 h
Description: Sunflower leaf discs were placed on agar in 24-well microtiter plates and sprayed with aqueous test solutions prepared from 10'000 ppm DMSO stock solutions. After drying the leaf discs were infested with a Thrips population of mixed ages. The samples were assessed for mortality 6 days after infestation.

[1] = application rate 200 ppm, aphid population of mixed ages, 6 days after infestation, read-out: mortality
[2] = application rate 200 ppm, L1 larvae, 3 days after infestation
[3] = application rate 200 ppm, mixed population (mobile stages), 8 days after infestation, read-out: mortality
[4] = application rate 200 ppm, Thrips population of mixed ages, 6 days after infestation, read-out: mortality

Cc1cc(C2=NO[C@@](c3cc(Cl)c(F)c(Cl)c3)(C(F)(F)F)C2)ccc1C(=O)N[C@@H]1CON(S(=O)(=O)N(C)C2(C#N)CC2)C1 [Compound A187]
≥ 80%: percent effect (mortality or growth inhibition) at 200 ppm (Diabrotica balteata) | percent effect (mortality or growth inhibition) at 200 ppm (Euschistus heros) | mortality at 200 ppm (Myzus persicae; [1]) | percent effect (mortality or growth inhibition) at 200 ppm (Plutella xylostella) | mortality at 200 ppm (Spodoptera littoralis; [2]) | mortality at 200 ppm (Tetranychus urticae; [3]) | mortality at 200 ppm (Thrips tabaci; [4])

Cc1cc(C2=NO[C@](c3cc(Cl)cc(C(F)F)c3)(C(F)(F)F)C2)ccc1C(=O)N[C@H]1CON(S(=O)(=O)N(C)C)C1 [Compound A186]
≥ 80%: percent effect (mortality or growth inhibition) at 200 ppm (Diabrotica balteata) | percent effect (mortality or growth inhibition) at 200 ppm (Euschistus heros) | mortality at 200 ppm (Myzus persicae; [1]) | percent effect (mortality or growth inhibition) at 200 ppm (Plutella xylostella) | mortality at 200 ppm (Spodoptera littoralis; [2]) | mortality at 200 ppm (Tetranychus urticae; [3]) | mortality at 200 ppm (Thrips tabaci; [4])

Cc1cc(C2=NO[C@@](c3cc(Cl)c(F)c(Cl)c3)(C(F)(F)F)C2)ccc1C(=O)N[C@@H]1CON(S(=O)(=O)F)C1 [Compound A213, (4S)-4-[[4-[(5S)-5-(3,5-dichloro-4-fluorophenyl)-5-(trifluoromethyl)-4H-1,2-oxazol-3-yl]-2-methylbenzoyl]amino]-1,2-oxazolidine-2-sulfonyl fluoride]
≥ 80%: percent control (mortality or growth inhibition) at 200 ppm (Diabrotica balteata) | percent control (mortality or growth inhibition) at 200 ppm (Euschistus heros) | mortality at 200 ppm (Myzus persicae) | percent control (mortality or growth inhibition) at 200 ppm (Plutella xylostella) | mortality at 200 ppm (Spodoptera littoralis) | mortality at 200 ppm (Tetranychus urticae) | mortality at 200 ppm (Thrips tabaci)

Cc1cc(C2=NO[C@](c3ccc(F)c(C(F)(F)F)c3)(C(F)(F)F)C2)ccc1C(=O)N[C@@H]1CON(S(=O)(=O)N(C)C)C1 [Compound A184]
≥ 80%: percent effect (mortality or growth inhibition) at 200 ppm (Diabrotica balteata) | percent effect (mortality or growth inhibition) at 200 ppm (Euschistus heros) | mortality at 200 ppm (Myzus persicae; [1]) | percent effect (mortality or growth inhibition) at 200 ppm (Plutella xylostella) | mortality at 200 ppm (Spodoptera littoralis; [2]) | mortality at 200 ppm (Tetranychus urticae; [3]) | mortality at 200 ppm (Thrips tabaci; [4])

Cc1cc(C2=NO[C@@](c3cc(Cl)c(Cl)c(Cl)c3)(C(F)(F)F)C2)ccc1C(=O)NC1CON(S(=O)(=O)NC(C)C)C1 (stereo partly drawn) [Compound A101, N-[2-(isopropylsulfamoyl)isoxazolidin-4-yl]-2-methyl-4-[(5S)-5-(3,4,5-trichlorophenyl)-5-(trifluoromethyl)-4H-isoxazol-3-yl]benzamide]
≥ 80%: percent effect (mortality or growth inhibition) at 200 ppm (Diabrotica balteata) | percent effect (mortality or growth inhibition) at 200 ppm (Euschistus heros) | mortality at 200 ppm (Myzus persicae; [1]) | percent effect (mortality or growth inhibition) at 200 ppm (Plutella xylostella) | mortality at 200 ppm (Spodoptera littoralis; [2]) | mortality at 200 ppm (Tetranychus urticae; [3]) | mortality at 200 ppm (Thrips tabaci; [4])

CN(C1CC1)S(=O)(=O)N1C[C@@H](NC(=O)c2ccc(C3=NO[C@@](c4cc(Cl)cc(Cl)c4)(C(F)(F)F)C3)cc2Cl)CO1 [Compound A153]
≥ 80%: percent effect (mortality or growth inhibition) at 200 ppm (Diabrotica balteata) | percent effect (mortality or growth inhibition) at 200 ppm (Euschistus heros) | mortality at 200 ppm (Myzus persicae; [1]) | percent effect (mortality or growth inhibition) at 200 ppm (Plutella xylostella) | mortality at 200 ppm (Spodoptera littoralis; [2]) | mortality at 200 ppm (Tetranychus urticae; [3]) | mortality at 200 ppm (Thrips tabaci; [4])

Cc1cc(C2=NO[C@@](c3cc(Cl)c(F)c(Cl)c3)(C(F)(F)F)C2)ccc1C(=O)N[C@H]1CON(S(=O)(=O)C(F)F)C1 [Compound A226, 4-[(5S)-5-(3,5-dichloro-4-fluorophenyl)-5-(trifluoromethyl)-4H-1,2-oxazol-3-yl]-N-[(4R)-2-(difluoromethylsulfonyl)-1,2-oxazolidin-4-yl]-2-methylbenzamide]
≥ 80%: percent effect (mortality or growth inhibition) at 200 ppm (Diabrotica balteata) | percent effect (mortality or growth inhibition) at 200 ppm (Euschistus heros) | mortality at 200 ppm (Myzus persicae; [1]) | percent effect (mortality or growth inhibition) at 200 ppm (Plutella xylostella) | mortality at 200 ppm (Spodoptera littoralis; [2]) | mortality at 200 ppm (Tetranychus urticae; [3]) | mortality at 200 ppm (Thrips tabaci; [4])

Cc1cc(C2=NO[C@](c3cc(Cl)c(F)c(Cl)c3)(C(F)(F)F)C2)ccc1C(=O)N[C@H]1CON(S(=O)(=O)CCl)C1 [Compound A164, N-[(4R)-2-(chloromethylsulfonyl)-1,2-oxazolidin-4-yl]-4-[(5R)-5-(3,5-dichloro-4-fluorophenyl)-5-(trifluoromethyl)-4H-1,2-oxazol-3-yl]-2-methylbenzamide]
≥ 80%: percent effect (mortality or growth inhibition) at 200 ppm (Diabrotica balteata) | percent effect (mortality or growth inhibition) at 200 ppm (Euschistus heros) | mortality at 200 ppm (Myzus persicae; [1]) | percent effect (mortality or growth inhibition) at 200 ppm (Plutella xylostella) | mortality at 200 ppm (Spodoptera littoralis; [2]) | mortality at 200 ppm (Tetranychus urticae; [3]) | mortality at 200 ppm (Thrips tabaci; [4])

Cc1cc(C2=NO[C@@](c3cc(Cl)cc(Cl)c3)(C(F)(F)F)C2)ccc1C(=O)N[C@H]1CON(S(=O)(=O)F)C1 [Compound A198, (4R)-4-[[4-[(5S)-5-(3,5-dichlorophenyl)-5-(trifluoromethyl)-4H-isoxazol-3-yl]-2-methyl-benzoyl]amino]isoxazolidine-2-sulfonyl fluoride]
≥ 80%: percent control (mortality or growth inhibition) at 200 ppm (Diabrotica balteata) | percent control (mortality or growth inhibition) at 200 ppm (Euschistus heros) | mortality at 200 ppm (Myzus persicae) | percent control (mortality or growth inhibition) at 200 ppm (Plutella xylostella) | mortality at 200 ppm (Spodoptera littoralis) | mortality at 200 ppm (Tetranychus urticae) | mortality at 200 ppm (Thrips tabaci)

Cc1cc(C2=NO[C@@](c3cc(Cl)c(F)c(Cl)c3)(C(F)(F)F)C2)ccc1C(=O)NC1CON(S(=O)(=O)N(C)S(=O)(=O)N(C)C)C1 (stereo partly drawn) [Compound A79, 4-[(5S)-5-(3,5-dichloro-4-fluoro-phenyl)-5-(trifluoromethyl)-4H-isoxazol-3-yl]-N-[2-[dimethylsulfamoyl(methyl)sulfamoyl]isoxazolidin-4-yl]-2-methyl-benzamide]
≥ 80%: percent effect (mortality or growth inhibition) at 200 ppm (Diabrotica balteata) | percent effect (mortality or growth inhibition) at 200 ppm (Euschistus heros) | mortality at 200 ppm (Myzus persicae; [1]) | percent effect (mortality or growth inhibition) at 200 ppm (Plutella xylostella) | mortality at 200 ppm (Spodoptera littoralis; [2]) | mortality at 200 ppm (Tetranychus urticae; [3]) | mortality at 200 ppm (Thrips tabaci; [4])

CCN(C1CC1)S(=O)(=O)N1C[C@@H](NC(=O)c2ccc(C3=NO[C@@](c4cc(Cl)cc(Cl)c4)(C(F)(F)F)C3)cc2Cl)CO1 [Compound A157]
≥ 80%: percent effect (mortality or growth inhibition) at 200 ppm (Diabrotica balteata) | percent effect (mortality or growth inhibition) at 200 ppm (Euschistus heros) | mortality at 200 ppm (Myzus persicae; [1]) | percent effect (mortality or growth inhibition) at 200 ppm (Plutella xylostella) | mortality at 200 ppm (Spodoptera littoralis; [2]) | mortality at 200 ppm (Tetranychus urticae; [3]) | mortality at 200 ppm (Thrips tabaci; [4])

Cc1cc(C2=NO[C@](c3cc(Cl)c(Cl)c(Cl)c3)(C(F)(F)F)C2)ccc1C(=O)N[C@H]1CON(S(=O)(=O)CF)C1 [Compound A216, N-[(4R)-2-(fluoromethylsulfonyl)-1,2-oxazolidin-4-yl]-2-methyl-4-[(5R)-5-(3,4,5-trichlorophenyl)-5-(trifluoromethyl)-4H-1,2-oxazol-3-yl]benzamide]
≥ 80%: percent effect (mortality or growth inhibition) at 200 ppm (Diabrotica balteata) | percent effect (mortality or growth inhibition) at 200 ppm (Euschistus heros) | mortality at 200 ppm (Myzus persicae; [1]) | percent effect (mortality or growth inhibition) at 200 ppm (Plutella xylostella) | mortality at 200 ppm (Spodoptera littoralis; [2]) | mortality at 200 ppm (Tetranychus urticae; [3]) | mortality at 200 ppm (Thrips tabaci; [4])

From patent US10588317B2, “Isoxazoline-substituted benzamides and analogues as insecticides” (priority 2015, dated 2020)
